Experimental data: the CheMixHub viscosity set

Assay: xn = mol fraction of the nth substance listed

CO + O
Conditions	viscosity [mPa·s]
293.15 K, 100 kPa, x1 = 0.2	1.801
293.15 K, 100 kPa, x1 = 0.3	1.845
293.15 K, 100 kPa, x1 = 0.4	1.764
293.15 K, 101 kPa, x1 = 0.055	1.262
293.15 K, 101 kPa, x1 = 0.129	1.651
293.15 K, 101 kPa, x1 = 0.232	1.836
293.15 K, 101 kPa, x1 = 0.487	1.555
293.15 K, 101 kPa, x1 = 0.541	1.418
293.15 K, 101 kPa, x1 = 0.625	1.23
293.15 K, 101 kPa, x1 = 0.642	1.186
293.15 K, 101 kPa, x1 = 0.903	0.745
293.15 K, 101.3 kPa, x1 = 0.05886	1.276
293.15 K, 101.3 kPa, x1 = 0.05892	1.276
293.15 K, 101.3 kPa, x1 = 0.1014	1.465
293.15 K, 101.3 kPa, x1 = 0.1021	1.453
293.15 K, 101.3 kPa, x1 = 0.1493	1.628
293.15 K, 101.3 kPa, x1 = 0.1972	1.742
293.15 K, 101.3 kPa, x2 = 0.0969	0.743
293.15 K, 101.3 kPa, x2 = 0.2006	0.916
293.15 K, 101.3 kPa, x2 = 0.3002	1.105
293.15 K, 101.3 kPa, x2 = 0.4001	1.314
293.15 K, 101.3 kPa, x2 = 0.5	1.501
293.15 K, 101.3 kPa, x2 = 0.7	1.837
293.15 K, 101.3 kPa, x2 = 0.85	1.705
293.15 K, 101.3 kPa, x2 = 0.9	1.528
293.15 K, 101.3 kPa, x2 = 0.95	1.278
298.15 K, 101 kPa, x1 = 0.0519	1.129
298.15 K, 101 kPa, x1 = 0.0845	1.264
298.15 K, 101 kPa, x1 = 0.125	1.385
298.15 K, 101 kPa, x1 = 0.217	1.576
298.15 K, 101 kPa, x1 = 0.274	1.59
298.15 K, 101 kPa, x1 = 0.465	1.35
298.15 K, 101 kPa, x1 = 0.702	1.03
298.15 K, 101 kPa, x2 = 0.9413	1.1
298.15 K, 101.3 kPa, x1 = 0.1021	1.3
298.15 K, 101.3 kPa, x1 = 0.1233	1.392
298.15 K, 101.3 kPa, x1 = 0.2727	1.595
298.15 K, 101.3 kPa, x1 = 0.3599	1.534
298.15 K, 101.3 kPa, x1 = 0.4576	1.401
298.15 K, 101.3 kPa, x1 = 0.5675	1.218
298.15 K, 101.3 kPa, x1 = 0.6922	1.005
298.15 K, 101.3 kPa, x1 = 0.835	0.782
298.15 K, 101.3 kPa, x1 = 0.9144	0.659
298.15 K, 101.33 kPa, x1 = 0.03958	1.055
298.15 K, 101.33 kPa, x1 = 0.05923	1.157
298.15 K, 101.33 kPa, x1 = 0.1332	1.403
298.15 K, 101.33 kPa, x1 = 0.2396	1.6
298.15 K, 101.33 kPa, x1 = 0.2551	1.575
298.15 K, 101.33 kPa, x1 = 0.2785	1.57
298.15 K, 101.33 kPa, x1 = 0.3255	1.57
298.15 K, 101.33 kPa, x1 = 0.3558	1.532
298.15 K, 101.33 kPa, x1 = 0.3863	1.49
298.15 K, 101.33 kPa, x1 = 0.4426	1.427
298.15 K, 101.33 kPa, x1 = 0.4685	1.37
298.15 K, 101.33 kPa, x1 = 0.5278	1.282
298.15 K, 101.33 kPa, x1 = 0.6055	1.167
298.15 K, 101.33 kPa, x1 = 0.6583	1.105
303.15 K, 101 kPa, x1 = 0.055	0.978
303.15 K, 101 kPa, x1 = 0.129	1.245
303.15 K, 101 kPa, x1 = 0.176	1.313
303.15 K, 101 kPa, x1 = 0.256	1.37
303.15 K, 101 kPa, x1 = 0.487	1.218
303.15 K, 101 kPa, x1 = 0.541	1.126
303.15 K, 101 kPa, x1 = 0.642	0.974
303.15 K, 101 kPa, x1 = 0.903	0.63
303.15 K, 101.3 kPa, x1 = 0.0588	1.015
303.15 K, 101.3 kPa, x1 = 0.1233	1.206
303.15 K, 101.3 kPa, x1 = 0.2727	1.381
303.15 K, 101.3 kPa, x1 = 0.4576	1.239
303.15 K, 101.3 kPa, x1 = 0.5675	1.085
303.15 K, 101.3 kPa, x1 = 0.6922	0.907
303.15 K, 101.3 kPa, x1 = 0.835	0.714
303.15 K, 101.3 kPa, x1 = 0.9144	0.612
303.15 K, 101.3 kPa, x2 = 0.0969	0.634
303.15 K, 101.3 kPa, x2 = 0.1	0.618
303.15 K, 101.3 kPa, x2 = 0.2006	0.768
303.15 K, 101.3 kPa, x2 = 0.208	0.755
303.15 K, 101.3 kPa, x2 = 0.3002	0.906
303.15 K, 101.3 kPa, x2 = 0.3041	0.878
303.15 K, 101.3 kPa, x2 = 0.4001	1.062
